{
  "source": "patent US12077503B2",
  "about": "“Substituted cyclic amides and their use as herbicides” (FMC CORPORATION, priority 2015, dated 2024)",
  "type_in_all_cases": "in vivo",
  "key": {"[1]": {"test_system": "giant foxtail (Setaria faberii)", "assay": "Test A preemergence", "conditions": "Setaria faberi, pre-emergence, 240 h, 0 to 100 scale (0 no effect, 100 complete control), read-out: Plant response rating, Foxtail, Giant", "in_short": "(§1)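 Preemergence soil spray on seeded pots or post-emergence spray on 1–2 leaf plants, in loam–sand blend. Greenhouse ~10 d. Visual rating 0–100 against untreated plants.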"}, "[2]": {"test_system": "ryegrass, Italian (Italian ryegrass, Lolium multiflorum)", "assay": "Test A preemergence", "conditions": "Lolium multiflorum, pre-emergence, 240 h, 0 to 100 scale (0 no effect, 100 complete control), read-out: Plant response rating, Ryegrass, Italian", "in_short": "as §1"}, "[3]": {"test_system": "barnyardgrass (Echinochloa crus-galli)", "assay": "Test A preemergence", "conditions": "Echinochloa crus-galli, pre-emergence, 240 h, 0 to 100 scale (0 no effect, 100 complete control), read-out: Plant response rating, Barnyardgrass", "in_short": "as §1"}, "[4]": {"test_system": "ragweed (common ragweed, Ambrosia elatior)", "assay": "Test A preemergence", "conditions": "Ambrosia artemisiifolia, pre-emergence, 240 h, 0 to 100 scale (0 no effect, 100 complete control), read-out: Plant response rating, Ragweed", "in_short": "as §1"}, "[5]": {"test_system": "pigweed (Amaranthus retroflexus)", "assay": "Test A preemergence", "conditions": "Amaranthus retroflexus, pre-emergence, 240 h, 0 to 100 scale (0 no effect, 100 complete control), read-out: Plant response rating, Pigweed"}, "[6]": {"test_system": "Kochia (Kochia scoparia)", "assay": "Test A preemergence", "conditions": "Bassia scoparia, pre-emergence, 240 h, 0 to 100 scale (0 no effect, 100 complete control), read-out: Plant response rating, Kochia", "in_short": "as §1"}, "[7]": {"test_system": "corn (Zea mays)", "assay": "Test A postemergence", "conditions": "Zea mays, post-emergence, 240 h, Postemergence", "in_short": "as §1"}, "[8]": {"test_system": "wheat (Triticum aestivum)", "assay": "Test A postemergence", "conditions": "Triticum aestivum, post-emergence, 240 h, Postemergence, read-out: Plant response rating, Wheat", "in_short": "as §1"}, "[9]": {"test_system": "blackgrass (Alopecurus myosuroides)", "assay": "Test A postemergence", "conditions": "Alopecurus myosuroides, post-emergence, 240 h, Postemergence, read-out: Plant response rating, Blackgrass", "in_short": "as §1"}, "[10]": {"test_system": "giant foxtail (Setaria faberii)", "assay": "Test A postemergence", "conditions": "Setaria faberi, post-emergence, 240 h, Postemergence, read-out: Plant response rating, Foxtail, Giant", "in_short": "as §1"}, "[11]": {"test_system": "barnyardgrass (Echinochloa crus-galli)", "assay": "Test A postemergence", "conditions": "Echinochloa crus-galli, post-emergence, 240 h, Postemergence, read-out: Plant response rating, Barnyardgrass", "in_short": "as §1"}, "[12]": {"test_system": "Galium (catchweed bedstraw, Galium aparine)", "assay": "Test A postemergence", "conditions": "Galium, post-emergence, 240 h, Postemergence, read-out: Plant response rating, Galium", "in_short": "as §1"}, "[13]": {"test_system": "ragweed (common ragweed, Ambrosia elatior)", "assay": "Test A postemergence", "conditions": "Ambrosia artemisiifolia, post-emergence, 240 h, Postemergence, read-out: Plant response rating, Ragweed", "in_short": "as §1"}, "[14]": {"test_system": "pigweed (Amaranthus retroflexus)", "assay": "Test A postemergence", "conditions": "Amaranthus retroflexus, post-emergence, 240 h, Postemergence, read-out: Plant response rating, Pigweed", "in_short": "as §1"}, "[15]": {"test_system": "Kochia (Kochia scoparia)", "assay": "Test A postemergence", "conditions": "Bassia scoparia, post-emergence, 240 h, Postemergence, read-out: Plant response rating, Kochia", "in_short": "as §1"}, "[16]": {"conditions": "125 g ai/ha, visual injury after approx. 10 d, 0 to 100 scale, 0 no effect, 100 complete control"}, "[17]": {"conditions": "500 g ai/ha, visual injury, 0 to 100 scale (0 no effect, 100 complete control), approx. 10 d"}},
  "data": [
    {"compound": "CSc1ccccc1NC(=O)[C@H]1C(=O)N(C)C[C@@H]1c1ccc(C(F)(F)F)cc1", "note": "[Compound 1391]", "values": [
      {"measurement": "pest or weed control at 500 g/ha", "setting": "[1]; 500 g ai/ha, preemergence", "value": 100, "unit": "%"},
      {"measurement": "pest or weed control at 125 g/ha", "setting": "[1]; Preemergence, 125 g ai/ha", "value": 100, "unit": "%"},
      {"measurement": "pest or weed control at 500 g/ha", "setting": "[2]; 500 g ai/ha, preemergence", "value": 70, "unit": "%"},
      {"measurement": "pest or weed control at 125 g/ha", "setting": "[2]; Preemergence, 125 g ai/ha", "value": 30, "unit": "%"},
      {"measurement": "pest or weed control at 500 g/ha", "setting": "[3]; 500 g ai/ha, preemergence", "value": 100, "unit": "%"},
      {"measurement": "pest or weed control at 125 g/ha", "setting": "[3]; Preemergence, 125 g ai/ha", "value": 90, "unit": "%"},
      {"measurement": "pest or weed control at 500 g/ha", "setting": "[4]; 500 g ai/ha, preemergence", "value": 90, "unit": "%"},
      {"measurement": "pest or weed control at 125 g/ha", "setting": "[4]; Preemergence, 125 g ai/ha", "value": 90, "unit": "%"},
      {"measurement": "pest or weed control at 500 g/ha", "setting": "[5]; 500 g ai/ha, preemergence", "value": 90, "unit": "%"},
      {"measurement": "pest or weed control at 125 g/ha", "setting": "[5]; Preemergence, 125 g ai/ha", "value": 90, "unit": "%"},
      {"measurement": "pest or weed control at 500 g/ha", "setting": "[6]; 500 g ai/ha, preemergence", "value": 90, "unit": "%"},
      {"measurement": "pest or weed control at 125 g/ha", "setting": "[6]; Preemergence, 125 g ai/ha", "value": 90, "unit": "%"},
      {"measurement": "Corn plant response rating (crop injury, 0 = no effect, 100 = complete kill) at 125 g/ha", "setting": "[7]; [16]", "value": 0, "unit": "%"},
      {"measurement": "Corn plant response rating (crop injury, 0 = no effect, 100 = complete kill) at 500 g/ha", "setting": "[7]; [17]", "value": 80, "unit": "%"},
      {"measurement": "plant injury at 125 g/ha", "setting": "[8]; [16]", "value": 30, "unit": "%"},
      {"measurement": "plant injury at 500 g/ha", "setting": "[8]; [17]", "value": 60, "unit": "%"},
      {"measurement": "pest or weed control at 125 g/ha", "setting": "[9]; [16]", "value": 40, "unit": "%"},
      {"measurement": "pest or weed control at 500 g/ha", "setting": "[9]; [17]", "value": 70, "unit": "%"},
      {"measurement": "pest or weed control at 125 g/ha", "setting": "[10]; [16]", "value": 90, "unit": "%"},
      {"measurement": "pest or weed control at 500 g/ha", "setting": "[10]; [17]", "value": 90, "unit": "%"},
      {"measurement": "pest or weed control at 125 g/ha", "setting": "[11]; [16]", "value": 90, "unit": "%"},
      {"measurement": "pest or weed control at 500 g/ha", "setting": "[11]; [17]", "value": 100, "unit": "%"},
      {"measurement": "pest or weed control at 125 g/ha", "setting": "[12]; [16]", "value": 70, "unit": "%"},
      {"measurement": "pest or weed control at 500 g/ha", "setting": "[12]; [17]", "value": 70, "unit": "%"},
      {"measurement": "pest or weed control at 125 g/ha", "setting": "[13]; [16]", "value": 20, "unit": "%"},
      {"measurement": "pest or weed control at 500 g/ha", "setting": "[13]; [17]", "value": 60, "unit": "%"},
      {"measurement": "pest or weed control at 125 g/ha", "setting": "[14]; [16]", "value": 70, "unit": "%"},
      {"measurement": "pest or weed control at 500 g/ha", "setting": "[14]; [17]", "value": 90, "unit": "%"},
      {"measurement": "pest or weed control at 125 g/ha", "setting": "[15]; [16]", "value": 70, "unit": "%"},
      {"measurement": "pest or weed control at 500 g/ha", "setting": "[15]; [17]", "value": 80, "unit": "%"}
    ]}
  ]
}
